Data: the supplement of paper PMC5662764
± gives the standard deviation of the averaged measurements.

What was measured:
Assay in all cases: normalised growth rate inhibition (GR value) relative to DMSO control (GR (1 = untreated growth, 0 = cytostasis, <0 = cytotoxic)); higher = less growth inhibition
Details in all cases: 72 h
MCF7 = test system: MCF7
Procedure: (§1)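 Breast cancer cell lines (BT-20, Hs 578T, MCF 10A, MCF7, MDA-MB-231, SK-BR-3) were plated in 384-well plates and treated 24 h later with drugs at six concentrations (0.04-10 µM). Viable cells were counted by Hoechst/dead-cell-stain imaging at 0 and 72 h. Counts were normalised to DMSO controls on the same plate to give the relative cell count and the growth-rate inhibition (GR) value; technical plate triplicates were averaged for each biological replicate.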

MCF10A = test system: MCF10A
Procedure: as §1

SKBR3 = test system: SKBR3
Procedure: as §1

BT20 = test system: BT20
Procedure: as §1

MDAMB231 = test system: MDAMB231
Procedure: as §1

HS578T = test system: HS578T
Procedure: as §1

Row | Compound | normalised growth rate inhibition (MCF7; 0.04 µM) | normalised growth rate inhibition (MCF7; 0.12 µM) | normalised growth rate inhibition (MCF7; 0.37 µM) | normalised growth rate inhibition (MCF7; 1.11 µM) | normalised growth rate inhibition (MCF7; 3.33 µM) | normalised growth rate inhibition (MCF7; 10 µM) | normalised growth rate inhibition (MCF10A; 0.04 µM) | normalised growth rate inhibition (MCF10A; 0.12 µM) | normalised growth rate inhibition (MCF10A; 0.37 µM) | normalised growth rate inhibition (MCF10A; 1.11 µM) | normalised growth rate inhibition (MCF10A; 3.33 µM) | normalised growth rate inhibition (MCF10A; 10 µM) | normalised growth rate inhibition (SKBR3; 0.04 µM) | normalised growth rate inhibition (SKBR3; 0.12 µM) | normalised growth rate inhibition (SKBR3; 0.37 µM) | normalised growth rate inhibition (SKBR3; 1.11 µM) | normalised growth rate inhibition (SKBR3; 3.33 µM) | normalised growth rate inhibition (SKBR3; 10 µM) | normalised growth rate inhibition (BT20; 0.04 µM) | normalised growth rate inhibition (BT20; 0.12 µM) | normalised growth rate inhibition (BT20; 0.37 µM) | normalised growth rate inhibition (BT20; 1.11 µM) | normalised growth rate inhibition (BT20; 3.33 µM) | normalised growth rate inhibition (BT20; 10 µM) | normalised growth rate inhibition (MDAMB231; 0.04 µM) | normalised growth rate inhibition (MDAMB231; 0.12 µM) | normalised growth rate inhibition (MDAMB231; 0.37 µM) | normalised growth rate inhibition (MDAMB231; 1.11 µM) | normalised growth rate inhibition (MDAMB231; 3.33 µM) | normalised growth rate inhibition (MDAMB231; 10 µM) | normalised growth rate inhibition (HS578T; 0.04 µM) | normalised growth rate inhibition (HS578T; 0.12 µM) | normalised growth rate inhibition (HS578T; 0.37 µM) | normalised growth rate inhibition (HS578T; 1.11 µM) | normalised growth rate inhibition (HS578T; 3.33 µM) | normalised growth rate inhibition (HS578T; 10 µM)
1 | CC(C)(C)c1cnc(CSc2cnc(NC(=O)C3CCNCC3)s2)o1 | -0.0791 ± 0.16 | -0.295 ± 0.04 | -0.329 ± 0.061 | -0.326 ± 0.058 | -0.34 ± 0.063 | -0.354 ± 0.083 | 0.921 ± 0.093 | 0.0575 ± 0.011 | -0.186 ± 0.2 | -0.256 ± 0.23 | -0.261 ± 0.23 | -0.254 ± 0.19 | 0.464 ± 0.18 | -0.223 ± 0.15 | -0.312 ± 0.17 | -0.332 ± 0.17 | -0.343 ± 0.21 | -0.367 ± 0.21 | 0.885 ± 0.061 | 0.134 ± 0.27 | -0.239 ± 0.067 | -0.323 ± 0.17 | -0.33 ± 0.19 | -0.299 ± 0.2 | 0.314 ± 0.11 | -0.201 ± 0.17 | -0.24 ± 0.17 | -0.23 ± 0.15 | -0.203 ± 0.18 | -0.201 ± 0.14 | 0.786 ± 0.044 | -0.123 ± 0.12 | -0.146 ± 0.094 | -0.155 ± 0.12 | -0.137 ± 0.095 | -0.148 ± 0.11
2 | CC(C)CC(=O)Nc1n[nH]c2c1CN(C(=O)C1CCN(C)CC1)C2(C)C | 0.207 ± 0.15 | 0.143 ± 0.1 | 0.0348 ± 0.063 | -0.0125 ± 0.053 | -0.102 ± 0.12 | -0.328 ± 0.029 | 0.322 ± 0.09 | 0.228 ± 0.053 | 0.116 ± 0.063 | 0.0382 ± 0.073 | -0.0512 ± 0.066 | -0.187 ± 0.19 | 0.145 ± 0.15 | 0.0952 ± 0.085 | 0.0136 ± 0.079 | -0.0334 ± 0.073 | -0.0738 ± 0.074 | -0.305 ± 0.21 | 0.52 ± 0.085 | 0.436 ± 0.047 | 0.276 ± 0.097 | 0.109 ± 0.12 | -0.0127 ± 0.079 | -0.219 ± 0.12 | 0.304 ± 0.16 | 0.211 ± 0.072 | 0.0329 ± 0.056 | -0.0471 ± 0.091 | -0.13 ± 0.13 | -0.262 ± 0.2 | 0.497 ± 0.057 | 0.427 ± 0.073 | 0.227 ± 0.11 | 0.0474 ± 0.12 | -0.035 ± 0.096 | -0.157 ± 0.11
3 | CCN(CC)CCCCNc1ncc2cc(-c3cc(OC)cc(OC)c3)c(NC(=O)NC(C)(C)C)nc2n1 | 1.1 ± 0.066 | 1.08 ± 0.029 | 1.04 ± 0.078 | 1.1 ± 0.066 | 1.1 ± 0.12 | 0.572 ± 0.16 | 1.022 ± 0.0032 | 1.005 ± 0.0025 | 0.9981 ± 0.0038 | 0.9929 ± 0.0079 | 0.984 ± 0.016 | 0.644 ± 0.15 | 1.14 ± 0.12 | 1.12 ± 0.13 | 1.08 ± 0.085 | 1.13 ± 0.12 | 1.12 ± 0.11 | 0.209 ± 0.2 | 1.1 ± 0.039 | 1.08 ± 0.058 | 1.09 ± 0.056 | 1.14 ± 0.066 | 1.16 ± 0.049 | 0.853 ± 0.18 | 1.08 ± 0.053 | 1.07 ± 0.032 | 1.08 ± 0.079 | 1.07 ± 0.054 | 1.04 ± 0.018 | 0.0514 ± 0.23 | 0.852 ± 0.074 | 0.824 ± 0.083 | 0.835 ± 0.074 | 0.846 ± 0.061 | 0.809 ± 0.071 | 0.164 ± 0.14
4 | CCc1cc(Nc2nccc(-c3c(-c4ccc(OC)c(C(=O)Nc5c(F)cccc5F)c4)nc4ccccn34)n2)c(OC)cc1N1CCC(N2CCN(S(C)(=O)=O)CC2)CC1 | 0.473 ± 0.16 | 0.418 ± 0.17 | 0.404 ± 0.092 | 0.363 ± 0.081 | 0.358 ± 0.069 | 0.319 ± 0.091 | 0.719 ± 0.2 | 0.699 ± 0.19 | 0.656 ± 0.22 | 0.608 ± 0.23 | 0.621 ± 0.23 | 0.634 ± 0.18 | 0.701 ± 0.094 | 0.841 ± 0.045 | 0.98 ± 0.02 | 0.986 ± 0.057 | 1.04 ± 0.023 | 1.05 ± 0.027 | 0.821 ± 0.056 | 0.902 ± 0.036 | 0.916 ± 0.017 | 0.937 ± 0.042 | 0.961 ± 0.029 | 0.999 ± 0.043 | 0.813 ± 0.093 | 0.864 ± 0.045 | 0.893 ± 0.027 | 0.9 ± 0.011 | 0.971 ± 0.02 | 0.939 ± 0.024 | 0.96 ± 0.025 | 0.958 ± 0.013 | 0.965 ± 0.017 | 0.931 ± 0.024 | 0.951 ± 0.032 | 0.955 ± 0.023
5 | CN(c1ncccc1CNc1nc(Nc2ccc3c(c2)CC(=O)N3)ncc1C(F)(F)F)S(C)(=O)=O | 0.8557 ± 0.0043 | 0.759 ± 0.054 | 0.529 ± 0.066 | 0.251 ± 0.094 | -0.0743 ± 0.044 | -0.309 ± 0.069 | 0.894 ± 0.02 | 0.814 ± 0.017 | 0.66 ± 0.014 | 0.4 ± 0.098 | 0.0782 ± 0.016 | -0.191 ± 0.2 | 1.05 ± 0.051 | 0.984 ± 0.095 | 0.704 ± 0.099 | 0.198 ± 0.053 | -0.0632 ± 0.084 | -0.254 ± 0.25 | 0.921 ± 0.011 | 0.879 ± 0.031 | 0.815 ± 0.069 | 0.583 ± 0.13 | 0.201 ± 0.15 | -0.212 ± 0.071 | 0.897 ± 0.027 | 0.825 ± 0.081 | 0.741 ± 0.075 | 0.577 ± 0.14 | 0.166 ± 0.14 | -0.196 ± 0.22 | 0.897 ± 0.02 | 0.812 ± 0.035 | 0.735 ± 0.034 | 0.62 ± 0.042 | 0.438 ± 0.048 | -0.0953 ± 0.11
6 | CNC(=O)Nc1ccc(-c2nc(N3CC4CCC(C3)O4)c3cnn(C4CCC5(CC4)OCCO5)c3n2)cc1 | 0.16 ± 0.091 | 0.14 ± 0.1 | 0.13 ± 0.069 | 0.149 ± 0.1 | 0.0933 ± 0.1 | -0.00137 ± 0.14 | 0.506 ± 0.15 | 0.284 ± 0.064 | 0.224 ± 0.057 | 0.176 ± 0.017 | 0.151 ± 0.042 | 0.14 ± 0.026 | 0.0703 ± 0.093 | 0.000862 ± 0.13 | -0.00643 ± 0.17 | -0.00784 ± 0.15 | -0.0626 ± 0.15 | -0.0635 ± 0.14 | 0.473 ± 0.17 | 0.269 ± 0.11 | 0.208 ± 0.084 | 0.15 ± 0.064 | 0.113 ± 0.075 | 0.0435 ± 0.086 | 0.499 ± 0.16 | 0.369 ± 0.18 | 0.301 ± 0.15 | 0.285 ± 0.12 | 0.23 ± 0.12 | 0.0984 ± 0.14 | 0.268 ± 0.079 | 0.212 ± 0.066 | 0.198 ± 0.091 | 0.172 ± 0.096 | 0.177 ± 0.093 | 0.101 ± 0.15
7 | COCC(=O)NC/C=C/c1ccc2ncnc(Nc3ccc(Oc4ccc(C)nc4)c(C)c3)c2c1 | 0.835 ± 0.1 | 0.803 ± 0.063 | 0.786 ± 0.025 | 0.796 ± 0.066 | 0.822 ± 0.084 | 0.499 ± 0.13 | 1.011 ± 0.0036 | 0.9964 ± 0.006 | 0.989 ± 0.014 | 0.984 ± 0.01 | 0.9849 ± 0.0016 | 0.9384 ± 0.003 | 0.508 ± 0.27 | 0.315 ± 0.22 | 0.188 ± 0.21 | 0.165 ± 0.12 | 0.0772 ± 0.1 | -0.0874 ± 0.078 | 0.928 ± 0.0096 | 0.918 ± 0.026 | 0.892 ± 0.045 | 0.805 ± 0.032 | 0.767 ± 0.053 | 0.531 ± 0.052 | 0.899 ± 0.13 | 0.896 ± 0.13 | 0.897 ± 0.12 | 0.912 ± 0.088 | 0.832 ± 0.15 | 0.812 ± 0.14 | 0.966 ± 0.018 | 0.975 ± 0.035 | 0.963 ± 0.026 | 0.956 ± 0.042 | 0.928 ± 0.025 | 0.857 ± 0.017
